Test results taken from patent US8829197B2, “Salts and polymorphs of desazadesferrithiocin polyether analogues as metal chelation agents” (FerroKin Biosciences, Inc., priority 2008, dated 2014).
Where a name gives a salt, the structure may show the parent alone. Read-outs that look alike come from different tables or passages of the source.

What was measured:
Format in all cases: physicochemical
[1] = Approximate solubility (aliquots of solvent, visual inspection)
Protocol: Weighed samples were treated with aliquots of test solvents at room temperature. Samples were typically sonicated between additions to facilitate dissolution. Complete dissolution of the test material in each solvent was determined by visual inspection. Solubility was estimated based on the total volume of solvent used to provide complete dissolution. The actual solubility may be greater than the value calculated due to the incremental addition of solvent and kinetics of dissolution of the material. […] The solubility is expressed as […] if dissolution occurred after the addition of first aliquot.
Approximate solubilities are calculated based on the total solvent used to give a solution based on visual inspection. Small aliquots of solvent are added to a weighed sample with agitation. Actual solubilities may be greater because of the volume of the solvent portions utilized or a slow rate of dissolution. Solubilities are reported to the nearest mg/mL. Simulated gastric fluid (SGF) was prepared according to the 2008 USP vol. 1, p 817 except without pepsin.
Approximate solubilities are calculated based on the total solvent used to give a solution based on visual inspection. Small aliquots of solvent are added to a weighed sample with agitation. Actual solubilities may be greater because of the volume of the solvent portions utilized or a slow rate of dissolution.

[2] = Relative humidity stress / physical stability on exposure and storage; conditions: for hygroscopicity (in words): judged from 75% RH exposure; for physical change when exposed to 75% RH: 75% RH for 3 days
Source text: Following isolation, salts were then characterized by one or more standard techniques including but not limited to x-ray powder diffraction (XRPD), single crystal x-ray diffraction (SC-XRD or XRD), nuclear magnetic resonance (NMR), solubility analysis, and stability testing by moisture sorption/desorption stress analysis and differential scanning calorimetry (DSC).

[3] = Moisture sorption/desorption (DVS) analysis; conditions: for weight loss on desorption: between ~95% and ~5% RH; for total weight gain (water uptake): relative humidity from ~5% to ~95% RH; for hygroscopicity (in words): from DVS data; for weight loss during desorption: desorption step, 95% to 5% RH
Protocol: Moisture sorption/desorption (DVS) data were collected on a VTI SGA-100 Vapor Sorption Analyzer. Sorption and desorption data were collected over a range of 5% to 95% relative humidity (RH) at 10% RH intervals under a nitrogen purge. Samples were not dried prior to analysis. Equilibrium criteria used for analysis were less than 0.0100% weight change in 5 minutes, with a maximum equilibration time of 3 hours if the weight criterion was not met. Data were not corrected for the initial moisture content of the samples. NaCl and PVP were used as calibration standards.

[4] = Water, salts of (S)-4′-(OH)-DADFT-PE (Table 16)
[5] = water, salts of (S)-4′-(OH)-DADFT-PE
[6] = listed as magnesium salt candidate
[7] = listed as Magnesium Salt of (S)-4′-(Oh)-DADFT-PE
[8] = listed as N-methyl-D-glucamine (NMG) Salt of (S)-4′-(OH)-DADFT-PE
[9] = listed as Tromethamine Salt of (S)-4′-(OH)-DADFT-PE
[10] = SGF (simulated gastric fluid, without pepsin), Table 14
[11] = Water, salts of (S)-3′-(OH)-DADFT-PE (Table 14)
[12] = water, salts of (S)-3′-(OH)-DADFT-PE
[13] = sorption step from 5% to 95% RH

For `COCCOCCOCCOc1ccc(C2=N[C@@](C)(C(=O)O)CS2)c(O)c1` [Calcium A], the solubility ([1]; 0.1N HCl in water, simulated gastric fluid, thermodynamic from solid, 0.1N HCl in Water, Table 16, read-out: Solubility) was 3 mg/mL, the solubility [1, 4] was <0.5 mg/mL and the “aqueous solubility (in words)” value [1, 5] was “negligible”. For the same molecule, the “deliquescence upon ~75% RH stress” value [2] was “No apparent deliquescence”.
For `COCCOCCOCCOc1ccc(C2=N[C@@](C)(C(=O)O)CS2)c(O)c1` [Lysine A, 2,6-diammoniohexanoate (S)-2-(2-hydroxy-4-(2-(2-(2-methoxyethoxy)ethoxy)ethoxy)phenyl)-4-methyl-4,5-dihydrothiazole-4-carboxylate], the solubility [1, 4] was <0.5 mg/mL, the “aqueous solubility (in words)” value [1, 5] was “negligible” and the “appearance upon ~75% RH stress” value [2] was “became oily”. For the same molecule, the “deliquescence upon ~75% RH stress” value ([2]; listed as Lysine salt candidate) was “No apparent deliquescence”.
In the case of `COCCOCCOCCOc1ccc(C2=N[C@@](C)(C(=O)O)CS2)c(O)c1` [Magnesium A], the solubility [1, 4] is reported as 60 mg/mL, the aqueous solubility ([1]; water, salts of (S)-4′-(OH)-DADFT-PE, listed as magnesium salt candidate) is reported as ~60 mg/mL and the “deliquescence upon ~75% RH stress” value [2, 6] is reported as “No apparent deliquescence”. For the same molecule, the “additional weight gain above ~85% RH” value [3, 7] was ~20.2 wt %, the “weight gain below ~85% RH” value [3, 7] was ~22.0 wt % and the “weight loss on desorption” value [3, 7] was ~41.2 wt %. For the same molecule, the “total weight gain (water uptake)” value [3, 7] was ~42.7 wt %, the “total weight gain (water uptake)” value [3, 6] was ~42.7 wt % and the “weight loss upon equilibration at ~5% RH” value [3, 7] was ~0.7 wt %.
With `COCCOCCOCCOc1cccc(C2=N[C@@](C)(C(=O)O)CS2)c1O` [Magnesium salt of (S)-3′-(OH)-DADFT-PE, magnesium (S)-2-(2-hydroxy-3-(2-(2-(2-methoxyethoxy)ethoxy)ethoxy)phenyl)-4-methyl-4,5-dihydrothiazole-4-carboxylate hydroxide] the solubility ([1]; simulated gastric fluid (SGF) without pepsin, simulated gastric fluid, thermodynamic from solid, SGF (simulated gastric fluid, without pepsin), Table 14, read-out: Approximate Solubility) was ≥ 50 mg/mL, the solubility ([1]; water, thermodynamic from solid, Water, salts of (S)-3′-(OH)-DADFT-PE (Table 14), read-out: Approximate Solubility) was ≥ 48 mg/mL and the solubility ([1]; water, thermodynamic from solid, water, salts of (S)-3′-(OH)-DADFT-PE, read-out: aqueous solubility) was ≥ 48 mg/mL. The “XRPD pattern after exposure to 75% RH” value ([2]; 75% RH for 8 days) was “remained unchanged”, the “deliquescence when exposed to 75% RH” value ([2]; 75% RH for 8 days) was “did not deliquesce” and the “hygroscopicity (in words)” value [2] was “non-hygroscopic”.
With `COCCOCCOCCOc1ccc(C2=N[C@@](C)(C(=O)O)CS2)c(O)c1` [NMG A, 2,3,4,5,6-pentahydroxy-N-methylhexan-1-aminium (S)-2-(2-hydroxy-4-(2-(2-(2-methoxyethoxy)ethoxy)ethoxy)phenyl)-4-methyl-4,5-dihydrothiazole-4-carboxylate] the solubility [1, 4] was 60 mg/mL, the aqueous solubility ([1]; water, salts of (S)-4′-(OH)-DADFT-PE, listed as NMG salt candidate) was ~60 mg/mL and the “appearance upon ~75% RH stress” value [2] was “became oily”. The “deliquescence upon ~75% RH stress” value ([2]; listed as NMG salt candidate) was “No apparent deliquescence”, the “additional weight gain above ~85% RH” value [3, 8] was ~27.0 wt % and the “weight gain below ~85% RH” value [3, 8] was ~34.7 wt %. The “weight loss on desorption” value [3, 8] was ~60.6 wt %, the “total weight gain (water uptake)” value [3, 8] was ~61.7 wt % and the “total weight gain (water uptake)” value ([3]; listed as NMG salt candidate) was ~61.7 wt %. For the same molecule, the “weight loss upon equilibration at ~5% RH” value [3, 8] was ~0.5 wt %.
For `COCCOCCOCCOc1cccc(C2=N[C@@](C)(C(=O)[O-])CS2)c1O.[Na+]` [Sodium salt of (S)-3′-(OH)-DADFT-PE], the “physical change when exposed to 75% RH” value [2] was “remained physically unchanged”, the “hygroscopicity (in words)” value [2] was “non-hygroscopic” and the “exposure to ambient air” value ([2]; lyophilized solid, ambient air (~57% RH) for a few minutes) was “solids deliquesced”.
In the case of `COCCOCCOCCOc1ccc(C2=N[C@@](C)(C(=O)O)CS2)c(O)c1` [Tromethamine A, 1,3-dihydroxy-2-(hydroxymethyl)propan-2-aminium (S)-2-(2-hydroxy-4-(2-(2-(2-methoxyethoxy)ethoxy)ethoxy)phenyl)-4-methyl-4,5-dihydrothiazole-4-carboxylate], the aqueous solubility ([1]; water, salts of (S)-4′-(OH)-DADFT-PE, listed as Tromethamine salt candidate) is reported as > 124 mg/mL, the “appearance upon ~75% RH stress at elevated temperature” value ([2]; one day relative humidity stress, ~75% RH, elevated temperature) is reported as “become oily” and the “deliquescence upon ~75% RH stress” value ([2]; listed as Tromethamine salt candidate) is reported as “no apparent deliquescence”. The “weight gain above ~65% RH” value ([3]; above ~65% RH) was ~50.3 wt %, the “weight gain (water uptake) below ~65% RH” value ([3]; below ~65% RH) was ~1.5 wt % and the “weight loss on desorption” value [3, 9] was ~48.4 wt %. The “hygroscopicity (in words)” value [3] was “lower hygroscopicity compared to magnesium and NMG salt candidates”, the “total weight gain (water uptake)” value [3, 9] was ~51.8 wt % and the “weight loss upon equilibration at ~5% RH” value [3, 9] was ~0.7 wt %.
In the case of `COCCOCCOCCOc1cccc(C2=N[C@@](C)(C(=O)O)CS2)c1O` [magnesium salt Form B, magnesium (S)-2-(2-hydroxy-3-(2-(2-(2-methoxyethoxy)ethoxy)ethoxy)phenyl)-4-methyl-4,5-dihydrothiazole-4-carboxylate hydroxide], the “weight loss upon equilibrium at 5% RH” value ([3]; 5% RH) is reported as 10.8%, the “additional weight gain during sorption” value ([3]; above 65% RH, equilibrium weight not reached) is reported as 21.2% and the “weight loss during desorption” value [3] is reported as 26.6%. The “weight gain during sorption” value ([3]; from 5% to 65% RH) was 5.7% and the “hygroscopicity (in words)” value [3] was “hygroscopic”.
In the case of `C1CNCCN1.COCCOCCOCCOc1cccc(C2=N[C@@](C)(C(=O)O)CS2)c1O` [piperazine salt of (S)-3′-(OH)-DADFT-PE], the “physical change when exposed to 75% RH” value [2] is reported as “deliquesced” and the “hygroscopicity (in words)” value [2] is reported as “hygroscopic”.
For `COCCOCCOCCOc1cccc(C2=N[C@@](C)(C(=O)[O-])CS2)c1O.[K+]` [potassium salt Form A, potassium (S)-3′-desazadesferrithiocin polyether], the “Approximate Solubility” value ([1]; ACN, Table 14) was >6 mg/mL, the “Approximate Solubility” value ([1]; EtOAc/H2O, Table 14) was >70 mg/mL and the “Approximate Solubility” value ([1]; IPA, Table 14) was >68 mg/mL. The “Approximate Solubility” value ([1]; MEK, Table 14) was <7 mg/mL, the “Approximate Solubility” value [1, 10] was “≧230 mg/mL” and the “Approximate Solubility” value ([1]; THF, Table 14) was ~ 5 mg/mL. The “Approximate Solubility” value [1, 11] was “≧48 mg/mL”, the aqueous solubility [1, 12] was ≥ 48 mg/mL and the “form obtained on exposure to 53% RH” value ([2]; 53% RH for 11 days at room temperature) was “Form B”. The “physical change when exposed to 75% RH” value [2] was “Complete deliquesce”, the “weight loss during desorption” value [3] was 63.4% and the “hygroscopicity (in words)” value [3] was “extremely hygroscopic”. For the same molecule, the “average percentage weight loss at plateau of absorption curve” value ([3]; plateau between 45 and 65% RH) was 8.7% and the “weight gain during sorption” value [3, 13] was 67.7%.
For `COCCOCCOCCOc1cccc(C2=N[C@@](C)(C(=O)[O-])CS2)c1O.[K+]` [potassium salt Form B, potassium (S)-3′-desazadesferrithiocin polyether], the “form conversion on exposure to 40° C.” value ([2]; 40° C. for 6 days) was “desolvated into a mixture with Form A”, the “form conversion on exposure to P2O5” value ([2]; P2O5 for 6 days) was “converted to a new form, namely Form C” and the “physical stability of the form (in words)” value ([2]; low humidity (P2O5) or elevated temperature (40° C.)) was “unstable”. The “weight loss during desorption” value [3] was ~66%, the “hygroscopicity (in words)” value [3] was “extremely hygroscopic” and the “average percentage weight gain at plateau of absorption curve” value ([3]; plateau between 35 and 65% RH) was ~8%. For the same molecule, the “weight gain during sorption” value [3, 13] was ~70%.
For “zinc (S)-3′-desazadesferrithiocin polyether [Zinc salt of (S)-3′-(OH)-DADFT-PE]”, the “Approximate Solubility” value [1, 10] was “≧39 mg/mL”, the “Approximate Solubility” value [1, 11] was <1 mg/mL and the aqueous solubility [1, 12] was ~1 mg/mL. The “physical change when exposed to 75% RH” value [2] was “remained physically unchanged” and the “hygroscopicity (in words)” value [2] was “non-hygroscopic”.
